Reference: patent US5126359A, “Substituted bisazoles and their use as medicaments” (Bayer Aktiengesellschaft, priority 1988, dated 1992)
≈ marks a conversion by molar mass, not a printed value.

How the values were obtained:
[1] = system: Trichophyton mentagr.; assay: Antimycotic in vitro activity, serial dilution test (MIC), Trichophyton mentagrophytes; format: cell-based; conditions: Kimmig's test medium, 28° to 37° C., 96 hours
Protocol: (§1) The in vitro tests were carried out in a serial dilution test using inocula of microorganisms of on average 5×10^3 to 10^4 microorganisms/ml of substrate. The nutrient medium used was
(§2) (a) for dermatophytes and Hyphomycetes: Kimmig's test medium
(§3) The incubation temperature was 28° to 37° C., and the incubation period was 24 to 48 hours with yeasts and 96 hours with Dermatophytes and hyphomycetes.

[2] = system: Candida albicans; assay: Antimycotic in vitro activity, serial dilution test (MIC), Candida albicans; format: cell-based; conditions: Meat extract-dextrose broth, 28° to 37° C., 24 to 48 hours
Protocol: (§4) The in vitro tests were carried out in a serial dilution test using inocula of microorganisms of on average 5×10^3 to 10^4 microorganisms/ml of substrate. The nutrient medium used was (b) for yeasts: Meat extract-dextrose broth. The incubation temperature was 28° to 37° C., and the incubation period was 24 to 48 hours with yeasts and 96 hours with Dermatophytes and hyphomycetes.

[3] = system: Torulopsis glabrata; assay: Antimycotic in vitro activity, serial dilution test (MIC), Torulopsis glabrata; format: cell-based; conditions: Nakaseomyces glabratus; Meat extract-dextrose broth; 28° to 37° C.; 24 to 48 hours
Protocol: as §4

[4] = system: Aspergillus fumigatus; assay: Antimycotic in vitro activity, serial dilution test (MIC), Aspergillus fumigatus; format: cell-based; conditions: Kimmig's test medium, 28° to 37° C., 96 hours
Protocol: as §1, §2, §3

[5] = system: dermatophytes, Hyphomycetes and yeasts; assay: Antimycotic in vitro activity, serial dilution test, overall comparison with the prior art; format: cell-based; conditions: in words
Protocol: as §1, §2
Meat extract-dextrose broth.
as §3

[6] = system: Candida; assay: Antimycotic in vivo activity (oral) in mouse candidosis; design: species or system mouse (SPF-CF1); conditions: 10 to 100 mg/kg; for action in mouse candidosis, in words / Action (oral) in mouse candidosis: 6th day p.i.; for Action (oral) in mouse candidosis: one hour before and seven hours after infection; for surviving on the 6th day p.i.: untreated control about 5% survival
Protocol: Mice of the SPF-CF1 type were infected intravenously with 1-2×10^6 exponentially growing Candida cells which are suspended in physiological saline solution. One hour before and seven hours after infection, the animals are treated orally in each case with 10 to 100 mg/kg of body weight of the preparation. Untreated animals died on the 3rd to 6th day post-infection. The survival rate on the 6th day post-infection was about 5% in untreated control animals.

[7] = system: Trichophyton mentagrophytes; assay: Antimicrobial in vivo activity (topical) in the experimental guinea-pig trichophytosis model; design: species or system guinea-pig (Pirbright white); conditions: 1 × daily, 0.1% strength solution, from 3rd day
Protocol: White guinea-pigs of the Pirbright white strain are infected on the shaven, non-scarified back with a micro- and macroconidia suspension of Trichophyton mentagrophytes. The infected animals were treated topically 1 × daily with a 0.1% strength solution of the preparation according to the invention (in dimethyl sulphoxide: glycerol=1.4) beginning with the 3rd day. In untreated animals, the typical picture of a dermatophytosis with reddening, scaling and hair loss up to total integumental defect of the infection site developed within 12 days p.i.

## OC(Cn1cncn1)(Cn1cncn1)c1cccc(Cl)c1 [(A), reference compound]
[1]
  MIC: 32 mg/L (≈ 105 µM)
[2]
  MIC: > 64 mg/L
[3]
  MIC: > 64 mg/L
[4]
  MIC: > 64 mg/L

## OC(Cn1cncn1)(Cn1cncn1)c1ccccc1 [(B), reference compound]
[1]
  MIC: 64 mg/L (≈ 237 µM)
[2]
  MIC: 64 mg/L (≈ 237 µM)
[3]
  MIC: > 64 mg/L
[4]
  MIC: > 64 mg/L

## OC(Cn1cncn1)(c1ccc(Cl)cc1)C1(n2cnc(Cl)n2)CC1 (stereo not shown) [Example 4, 1-(4-Chlorophenyl)-1-[1-(3-chloro-1,2,4-triazol-1-yl)-cyclopropyl]-2-(1,2,4-triazol-1-yl)-ethan-1-ol]
[1]
  MIC: 4 mg/L (≈ 11 µM)
[2]
  MIC: 8 mg/L (≈ 21.9 µM)
[3]
  MIC: > 64 mg/L
[4]
  MIC: 32 mg/L (≈ 87.6 µM)
[5]
  antimycotic action compared with compounds (A) and (B) known from the prior art: better antimycotic action than the compounds (A) and (B)
[6]
  action in mouse candidosis, in words: good to very good action
  Action (oral) in mouse candidosis: +++++ (very good action = 90% surviving on the 6th day p.i.)
  surviving on the 6th day p.i.: > 80%

## OC(Cn1cncn1)(c1ccccc1)C1(n2cnc(Cl)n2)CC1 (stereo not shown) [Example 6, 1-[1-(3-Chloro-1,2,4-triazol-1-yl)-cyclopropyl]-1-phenyl-2-(1,2,4-triazol-1-yl)-ethan-1-ol]
[1]
  MIC: 8 mg/L (≈ 24.2 µM)
[2]
  MIC: 32 mg/L (≈ 96.7 µM)
[3]
  MIC: > 64 mg/L
[4]
  MIC: 16 mg/L (≈ 48.4 µM)
[5]
  antimycotic action compared with compounds (A) and (B) known from the prior art: better antimycotic action than the compounds (A) and (B)
[6]
  action in mouse candidosis, in words: good to very good action
  Action (oral) in mouse candidosis: +++++ (very good action = 90% surviving on the 6th day p.i.)
  surviving on the 6th day p.i.: > 80%
[7]
  action in guinea-pig trichophytosis, in words: good action

## OC(Cn1cncn1)(c1ccc(F)cc1)C1(n2cnc(Cl)n2)CC1 (stereo not shown) [Example 7, 1-[1-(3-Chloro-1,2,4-triazol-1-yl)-cyclopropyl]-1-(4-fluorophenyl)-2-(1,2,4-triazol-1-yl)-ethan-1-ol]
[1]
  MIC: 8 mg/L (≈ 22.9 µM)
[2]
  MIC: 32 mg/L (≈ 91.8 µM)
[3]
  MIC: > 64 mg/L
[4]
  MIC: 32 mg/L (≈ 91.8 µM)
[5]
  antimycotic action compared with compounds (A) and (B) known from the prior art: better antimycotic action than the compounds (A) and (B)
[6]
  action in mouse candidosis, in words: good to very good action
  Action (oral) in mouse candidosis: +++++ (very good action = 90% surviving on the 6th day p.i.)
  surviving on the 6th day p.i.: > 80%

## Cc1ccc(C(O)(Cn2cncn2)C2(n3cnc(Cl)n3)CC2)cc1 (stereo not shown) [Example 8, 1-[1-(3-Chloro-1,2,4-triazol-1-yl)-cyclopropyl]-1-(4-methylphenyl)-2-(1,2,4-triazol-1-yl)-ethan-1-ol]
[1]
  MIC: 4 mg/L (≈ 11.6 µM)
[2]
  MIC: 16 mg/L (≈ 46.4 µM)
[3]
  MIC: > 64 mg/L
[4]
  MIC: 16 mg/L (≈ 46.4 µM)
[5]
  antimycotic action compared with compounds (A) and (B) known from the prior art: better antimycotic action than the compounds (A) and (B)

## OC(Cn1cncn1)(c1ccc(-c2ccccc2)cc1)C1(n2cnc(Cl)n2)CC1 (stereo not shown) [Example 9, 1-(4-Biphenyl)-1-[1-(3-chloro-1,2,4-triazol-1-yl)-cyclopropyl]-2-(1,2,4-triazol-1-yl)-ethan-1-ol]
[1]
  MIC: 4 mg/L (≈ 9.83 µM)
[2]
  MIC: 32 mg/L (≈ 78.6 µM)
[3]
  MIC: 16 mg/L (≈ 39.3 µM)
[4]
  MIC: 16 mg/L (≈ 39.3 µM)
[5]
  antimycotic action compared with compounds (A) and (B) known from the prior art: better antimycotic action than the compounds (A) and (B)

## OC(Cn1cncn1)(c1ccc(F)cc1F)C1(n2cnc(Cl)n2)CC1 (stereo not shown) [Example 10, 1-[1-(3-Chloro-1,2,4-triazol-1-yl)-cyclopropyl]-1-(2,4-difluorophenyl)-2-(1,2,4-triazol-1-yl)-ethan-1-ol]
[1]
  MIC: 16 mg/L (≈ 43.6 µM)
[2]
  MIC: 32 mg/L (≈ 87.3 µM)
[3]
  MIC: > 64 mg/L
[4]
  MIC: 16 mg/L (≈ 43.6 µM)
[5]
  antimycotic action compared with compounds (A) and (B) known from the prior art: better antimycotic action than the compounds (A) and (B)
[6]
  action in mouse candidosis, in words: good to very good action
  Action (oral) in mouse candidosis: +++++ (very good action = 90% surviving on the 6th day p.i.)
  surviving on the 6th day p.i.: > 80%
[7]
  action in guinea-pig trichophytosis, in words: good action

## OC(Cn1cncn1)(c1ccc(F)c(F)c1)C1(n2cnc(Cl)n2)CC1 (stereo not shown) [Example 11, 1-[1-(3-Chloro-1,2,4-triazol-1-yl)-cyclopropyl]-1-(3,4-difluorophenyl)-2-(1,2,4-triazol-1-yl)-ethan-1-ol]
[1]
  MIC: 16 mg/L (≈ 43.6 µM)
[2]
  MIC: 16 mg/L (≈ 43.6 µM)
[3]
  MIC: > 64 mg/L
[4]
  MIC: 64 mg/L (≈ 175 µM)
[5]
  antimycotic action compared with compounds (A) and (B) known from the prior art: better antimycotic action than the compounds (A) and (B)
[6]
  action in mouse candidosis, in words: good to very good action
  Action (oral) in mouse candidosis: +++++ (very good action = 90% surviving on the 6th day p.i.)
  surviving on the 6th day p.i.: > 80%
[7]
  action in guinea-pig trichophytosis, in words: good action
